Measurements taken from patent publication US9655865B2, “Therapeutic treatment for metabolic syndrome, type 2 diabetes, obesity, or prediabetes” (VeroScience, LLC, priority 2002, dated 2017).

Assays:
[1] = system: Female ob/ob obese diabetic mice; assay: Bromocriptine and GBR 12909, alone and combined, 14 days in ob/ob mice (Example 8); format: in vivo; details: bromocriptine 10 mg/kg, GBR 12909 20 mg/kg, daily 14 days, FIG. 10
Procedure: The effects of adding GBR (a selective dopamine reuptake inhibitor) to bromocriptine (a dopamine D2 receptor agonist that can reduce central norepinephrine neuronal activity) in an effort to circumvent the impact of the D2 receptor agonist effect to reduce endogenous dopamine and to therefore improve metabolic disorders was examined in ob/ob mice treated with either vehicle, bromocriptine (BC) (10 mg/kg), GBR 12909 (20 mg/kg) or bromocriptine (10 mg/kg) plus GBR 12909 (20 mg/kg). Female ob/ob obese diabetic mice were fed standard chow and different groups of animals (n=5-7 group) were treated daily for 14 days with bromocriptine (to reduce norepinephrine neuronal activity) (10 mg/kg), GBR 12909 (to increase dopaminergic neuronal activity) (20 mg/kg) or with bromocriptine (10 mg/kg) plus GBR 12909 (20 mg/kg), or vehicle. […] BC had no effect on blood glucose level. The BC/GBR effect on blood glucose level was more than additive of the individual effects of BC and GBR combined (FIG. 10)

[2] = system: mice fed a high fat diet for 20 weeks; assay: Bromocriptine and GBR 12909, alone and combined, in high fat diet mice (Example 12); format: in vivo; details: bromocriptine 5 mg/kg, GBR 12909 5 mg/kg
Procedure: The effects of adding GBR (a selective dopamine reuptake inhibitor) to bromocriptine (a dopamine D2 receptor agonist that can reduce central norepinephrine neuronal activity) in an effort to circumvent the impact of the D2 receptor agonist effect to reduce endogenous dopamine and to therefore improve metabolic disorders was examined in mice fed a high fat diet for 20 weeks and then treated with either vehicle, bromocriptine (BC) (5 mg/kg), GBR 12909 (5 mg/kg) or bromocriptine (5 mg/kg) plus GBR 12909 (5 mg/kg). […] Again, increasing central dopaminergic neuronal activity and decreasing central norepinephrine neuronal activity simultaneously produces synergistic reductions in metabolic disorders. […] BC alone had no effect on plasma insulin level (FIG. 21).

## CC(C)C[C@H]1C(=O)N2CCC[C@H]2[C@]2(O)O[C@](NC(=O)[C@@H]3C=C4c5cccc6[nH]c(Br)c(c56)C[C@H]4N(C)C3)(C(C)C)C(=O)N12 [bromocriptine]
[1]
  blood glucose level: no effect
[2]; FIG. 21
  plasma insulin level: no effect
[2]; FIG. 22
  HOMA-IR (insulin resistance): no significant effect
